Test results as given in patent US20250049891A1, “NOVEL PEPTIDE DERIVATIVE DERIVED FROM ADIPONECTIN AND USE THEREOF” (SEOUL NATIONAL UNIVERSITY HOSPITAL, priority 2021, published 2025).
In brackets after ≈: the same amount, converted by molar mass. Numbered stars: 1 amine (or outer) side, 2 acyl side, 3 side chain; on linkers, the order of the positions; unused ones are H or OH. Bridge positions count the residues as written; N and C are the ends. Square brackets hold non-standard residues; d marks the D form. Peptide text beside a SMILES is read from it. ξ: configuration not given here. ξhAlg = O=C(C(CCC=[*:3])N[*:1])[*:2]; AllylGly = C=CC[CH](N)C(=O)O

Key:
[1] = Metabolic stability test, mouse liver microsomes; assay type: in vitro ADME; conditions: NADPH, 37° C.; for remaining at 0.5 h, 1 μM: pH 7.4, mouse liver microsomes 0.5 mg/ml, 30 m
in vitro [2] = conditions: human, microsomes, pH 7.4
CYP2C19 = CYP2C19 (Homo sapiens, UniProt P33261); conditions: microsomes, 10 µM
Description: (§1) Metabolites of each CYP isoenzyme indicator drug produced through the reaction were analyzed by LC-MS/MS using the Shimadzu Nexera XR system and TSQ vantage (Thermo).

CYP3A4 = CYP3A4 (Homo sapiens, UniProt P08684); conditions: microsomes, 10 µM
Description: as §1

CYP1A2 = molecular target: T1, CYP1A2 (Homo sapiens, UniProt P05177); conditions: microsomes, 10 µM
T1 sequence (P05177 1-516): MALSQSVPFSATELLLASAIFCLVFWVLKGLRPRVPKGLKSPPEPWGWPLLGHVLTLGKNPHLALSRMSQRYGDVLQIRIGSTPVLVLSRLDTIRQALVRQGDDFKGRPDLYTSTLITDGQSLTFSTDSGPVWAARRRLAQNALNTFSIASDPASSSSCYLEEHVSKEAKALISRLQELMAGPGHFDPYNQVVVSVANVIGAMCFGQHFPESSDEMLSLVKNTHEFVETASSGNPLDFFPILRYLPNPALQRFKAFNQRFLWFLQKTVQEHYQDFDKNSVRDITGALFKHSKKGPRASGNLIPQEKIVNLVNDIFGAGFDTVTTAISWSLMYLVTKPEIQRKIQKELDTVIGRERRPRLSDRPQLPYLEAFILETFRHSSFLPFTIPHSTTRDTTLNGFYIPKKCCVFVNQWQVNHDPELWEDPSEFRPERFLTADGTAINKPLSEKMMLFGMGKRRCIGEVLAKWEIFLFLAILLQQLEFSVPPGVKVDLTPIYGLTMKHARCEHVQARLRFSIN
Description: as §1

CYP2D6 = CYP2D6 (Homo sapiens, UniProt P10635); conditions: microsomes, 10 µM
Description: as §1

CYP2C9 = CYP2C9 (Homo sapiens, UniProt P11712); conditions: microsomes, 10 µM
Description: as §1

[3] = Metabolic stability test, rat liver microsomes; assay type: in vitro ADME; conditions: NADPH, 37° C.; for remaining at 0.5 h, 1 μM: pH 7.4, rat liver microsomes 0.5 mg/ml, 30 m
in vitro [4] = conditions: human, plasma
physchem = conditions: pH 7.4, aqueous buffer, kinetic from dmso stock
in vitro [5] = conditions: rat, plasma
[6] = Plasma stability test, rat plasma
AMPK phosphorylation = AMPK phosphorylation activity in mouse adipocytes (Western blot); assay type: cell-based; conditions: 3T3-L1, 10 μM, 24 hours; for AMPK phosphorylation activity (fold change): APN5 = 1.0
Description: There were confirmed effects of the peptide derivatives of the present disclosure on the expression and receptor activity of adiponectin in mouse adipocytes as a main adiponectin production site. A mouse adipocyte cell line 3T3-L1 was treated with each of the peptide derivatives of the present disclosure at a concentration of 10 μM and cultured for 24 hours, and then cells were obtained. Thereafter, the proteins were extracted and the effect on AMPK phosphorylation, which was responsible for the main downstream signaling of adiponectin, was confirmed by Western blot.

Solubility test = conditions: kinetic from dmso stock
adiponectin receptor 1 = molecular target: T2, adiponectin receptor 1 (Mus musculus, UniProt Q91VH1); assay: AMPK phosphorylation activity after knockdown of adiponectin receptor 1 (siRNA, Western blot); assay type: cell-based; conditions: 3T3-L1, adiponectin receptor 1 siRNA, 10 μM, 24 hours
T2 construct: a mouse adipocyte cell line 3T3-L1 was treated with siRNA of an adiponectin receptor 1 to be knocked down; endogenous in cells; host or cells: 3T3-L1 mouse adipocyte cell line
T2 sequence (Q91VH1 1-375): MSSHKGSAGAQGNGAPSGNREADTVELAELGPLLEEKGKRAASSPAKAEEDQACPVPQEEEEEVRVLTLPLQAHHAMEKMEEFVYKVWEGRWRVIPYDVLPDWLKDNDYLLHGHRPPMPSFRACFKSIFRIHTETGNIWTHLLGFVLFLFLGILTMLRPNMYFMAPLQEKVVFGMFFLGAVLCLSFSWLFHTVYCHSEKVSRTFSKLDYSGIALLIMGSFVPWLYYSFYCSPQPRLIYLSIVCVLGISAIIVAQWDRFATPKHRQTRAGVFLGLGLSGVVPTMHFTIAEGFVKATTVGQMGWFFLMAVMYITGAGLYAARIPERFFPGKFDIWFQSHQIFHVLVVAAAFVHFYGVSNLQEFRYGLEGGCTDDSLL
Description: In order to verify whether the peptide derivative of the present disclosure bound to an adiponectin receptor 1, a mouse adipocyte cell line 3T3-L1 was treated with siRNA of an adiponectin receptor 1 to be knocked down, and each of the peptide derivatives of the present disclosure was treated at 10 μM and cultured for 24 hours, and then cells were obtained. Thereafter, the proteins were extracted and it was confirmed by Western blot whether AMPK phosphorylation activity, which had been increased by the peptide derivatives, was lost.

[7] = Plasma stability test, human plasma; conditions: human plasma, 1 μM, 37° C.
[8] = Metabolic stability test, human liver microsomes; conditions: human liver microsomes 0.5 mg/ml, 1 μM, NADPH, 37° C., 30 m
[9] = PRISMA HT buffer, pH 7.4, aqueous buffer

Chain of CYP3A4 (P08684 whole entry): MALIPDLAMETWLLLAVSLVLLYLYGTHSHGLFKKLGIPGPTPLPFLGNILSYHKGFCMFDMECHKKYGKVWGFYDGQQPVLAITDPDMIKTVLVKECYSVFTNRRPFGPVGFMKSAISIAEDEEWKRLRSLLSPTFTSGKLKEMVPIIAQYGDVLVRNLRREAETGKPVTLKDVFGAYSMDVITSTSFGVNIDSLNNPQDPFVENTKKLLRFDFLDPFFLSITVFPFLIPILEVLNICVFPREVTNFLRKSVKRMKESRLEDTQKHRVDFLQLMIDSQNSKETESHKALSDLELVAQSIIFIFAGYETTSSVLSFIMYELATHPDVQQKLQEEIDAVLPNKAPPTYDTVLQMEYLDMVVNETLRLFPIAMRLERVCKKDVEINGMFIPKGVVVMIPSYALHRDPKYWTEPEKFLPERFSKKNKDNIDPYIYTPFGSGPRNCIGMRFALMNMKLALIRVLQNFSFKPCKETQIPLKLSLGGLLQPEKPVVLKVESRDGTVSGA
Chain of CYP2C19 (P33261 whole entry): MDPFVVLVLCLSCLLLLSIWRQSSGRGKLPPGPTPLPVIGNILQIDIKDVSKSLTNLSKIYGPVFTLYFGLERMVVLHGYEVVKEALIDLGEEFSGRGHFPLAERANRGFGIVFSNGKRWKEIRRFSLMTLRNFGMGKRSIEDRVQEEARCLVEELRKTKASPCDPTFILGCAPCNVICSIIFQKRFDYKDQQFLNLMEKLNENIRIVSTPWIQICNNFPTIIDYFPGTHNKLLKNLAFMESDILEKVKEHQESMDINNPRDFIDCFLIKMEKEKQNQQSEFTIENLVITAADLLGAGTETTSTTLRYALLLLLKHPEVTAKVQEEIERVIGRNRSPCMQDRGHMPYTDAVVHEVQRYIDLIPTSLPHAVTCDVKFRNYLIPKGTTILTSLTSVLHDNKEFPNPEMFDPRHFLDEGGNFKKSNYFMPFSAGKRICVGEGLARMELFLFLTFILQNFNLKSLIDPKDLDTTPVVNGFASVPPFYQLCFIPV
Chain of CYP2D6 (P10635 whole entry): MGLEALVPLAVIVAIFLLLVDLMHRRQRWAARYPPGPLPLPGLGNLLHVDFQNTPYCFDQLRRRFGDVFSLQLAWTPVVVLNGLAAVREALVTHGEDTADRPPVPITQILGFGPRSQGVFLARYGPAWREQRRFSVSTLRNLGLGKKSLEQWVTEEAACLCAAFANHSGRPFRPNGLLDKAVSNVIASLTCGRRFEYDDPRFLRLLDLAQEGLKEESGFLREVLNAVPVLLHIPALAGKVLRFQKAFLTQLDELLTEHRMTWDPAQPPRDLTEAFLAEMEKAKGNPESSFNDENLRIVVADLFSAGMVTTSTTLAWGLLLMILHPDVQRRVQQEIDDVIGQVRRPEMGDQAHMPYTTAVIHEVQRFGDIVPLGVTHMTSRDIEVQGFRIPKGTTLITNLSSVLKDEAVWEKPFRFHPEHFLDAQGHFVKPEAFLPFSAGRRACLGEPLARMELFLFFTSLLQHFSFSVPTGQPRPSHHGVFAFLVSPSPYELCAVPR
Chain of CYP2C9 (P11712 whole entry): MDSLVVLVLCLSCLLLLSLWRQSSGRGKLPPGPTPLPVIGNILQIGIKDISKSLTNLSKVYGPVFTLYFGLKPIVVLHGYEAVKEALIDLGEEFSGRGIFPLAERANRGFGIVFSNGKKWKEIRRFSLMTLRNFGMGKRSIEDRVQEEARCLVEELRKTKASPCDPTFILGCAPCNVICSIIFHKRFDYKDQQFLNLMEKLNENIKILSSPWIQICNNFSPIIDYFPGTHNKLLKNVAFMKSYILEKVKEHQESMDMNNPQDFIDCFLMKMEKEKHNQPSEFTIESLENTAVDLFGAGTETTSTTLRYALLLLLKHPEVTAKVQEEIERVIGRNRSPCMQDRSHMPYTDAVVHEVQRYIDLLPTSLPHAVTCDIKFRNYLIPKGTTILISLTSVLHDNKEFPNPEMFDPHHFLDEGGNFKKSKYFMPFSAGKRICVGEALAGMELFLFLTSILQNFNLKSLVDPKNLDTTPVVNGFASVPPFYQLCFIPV

CYP inhibition (% of control activity) CYP2C19 (CYP2C19) | CYP inhibition (% of control activity) CYP3A4 (CYP3A4) | CYP inhibition (% of control activity) CYP2D6 (CYP2D6) | SMILES | remaining at 0.5 h, 1 μM [1] | remaining at 0.5 h, 1 μM (in vitro [2]) | CYP inhibition (% of control activity) CYP1A2 (CYP1A2) | CYP inhibition (% of control activity) CYP2C9 (CYP2C9) | remaining at 0.5 h, 1 μM [3] | remaining at 0.5 h, 1 μM (in vitro [4]) | remaining at 2 h, 1 μM (in vitro [4]) | AMPK phosphorylation activity (fold change) (AMPK phosphorylation) | solubility kinetic at 24 h (Solubility test; [9]) | other results
85.1 % of control activity | 80.5 % of control activity | 85.9 % of control activity | CC(C)CC1NC(=O)C(N)CC/C=C\CC(C(N)=O)NC(=O)C(Cc2ccc(O)cc2)NC(=O)C(Cc2ccc(O)cc2)NC1=O (stereo not drawn) [DS-73] (H-[ξhAlg]LYY[AllylGly]-NH2; staple (Z) 1-5; configuration not given here) | 78% | 71.6% | 82.7 % of control activity | 96.5 % of control activity | 65.7% | 94.7% | 75.2% | – | – | solubility at 24 h (physchem): 315 µg/mL (≈ 495 µM); remaining at 0.5 h, 1 μM (in vitro [5]): > 100%; remaining at 2 h, 1 μM (in vitro [5]): 89.3%
– | – | – | CCC(C)C(NC(=O)CN)C(=O)NC(Cc1c[nH]c2ccccc12)C(=O)NC(Cc1ccc(O)cc1)C(=O)NC(Cc1ccccc1)C(N)=O (stereo not drawn) [DS-18, NH2-GIWYF-NH2] (H-GIWYF-NH2; configuration not given here) | – | – | – | – | – | – | – | 1.2 fold change | – | AMPK phosphorylation activity after knockdown of the adiponectin receptor 1 (adiponectin receptor 1): decreased the AMPK phosphorylation activity after knockdown of the adiponectin receptor 1; AMPK phosphorylation activity compared to APN5 (in words) (AMPK phosphorylation; compared to APN5): significant effect of increasing AMPK phosphorylation activity
– | – | – | O=C(O)Cc1ccccc1Nc1c(Cl)cccc1Cl [Diclofenac] | – | – | – | – | – | – | – | – | 157 µg/mL (≈ 530 µM) | –
66.0 % of control activity | 90.3 % of control activity | 30.3 % of control activity | O=C(COc1ccc(C(=O)c2ccccc2)cc1)NC1CCN(Cc2ccccc2)CC1 [DS-43, adiporon, reference compound] | – | – | – | – | – | – | – | – | – | Metabolic stability (% remaining) Mouse, 30 m ([1]; mouse liver microsomes 0.5 mg/ml, 1 μM): 3.1 % remaining; Plasma stability (% remaining) Rat, 30 m ([6]; rat plasma, 1 μM, 37° C., 30 m): >100 % remaining; Plasma stability (% remaining) Rat, 120 m ([6]; rat plasma, 1 μM, 37° C., 120 m): >100 % remaining; Plasma stability (% remaining) Human, 30 m ([7]; 30 m): >100 % remaining; Plasma stability (% remaining) Human, 120 m ([7]; 120 m): >100 % remaining; Metabolic stability (% remaining) Rat, 30 m ([3]; rat liver microsomes 0.5 mg/ml, 1 μM): 2.3 % remaining; Metabolic stability (% remaining) Human, 30 m [8]: 54.9 % remaining; solubility kinetic at 24 h (Solubility test; PRISMA HT buffer (diluted 1:40 in distilled water), pH 7.4, pH 7.4, aqueous buffer): 43.7 µg/mL (≈ 102 µM)

SMILES | CYP inhibition (% of control activity) CYP2C19 (CYP2C19) | CYP inhibition (% of control activity) CYP3A4 (CYP3A4) | CYP inhibition (% of control activity) CYP2D6 (CYP2D6) | remaining at 0.5 h, 1 μM [1] | remaining at 0.5 h, 1 μM (in vitro [2]) | CYP inhibition (% of control activity) CYP1A2 (CYP1A2) | CYP inhibition (% of control activity) CYP2C9 (CYP2C9) | remaining at 0.5 h, 1 μM [3] | remaining at 0.5 h, 1 μM (in vitro [4]) | remaining at 2 h, 1 μM (in vitro [4]) | AMPK phosphorylation activity (fold change) (AMPK phosphorylation) | solubility kinetic at 24 h (Solubility test; [9]) | other results
CC(C)C[C@H](NC(=O)CN)C(=O)N[C@@H](Cc1ccc(O)cc1)C(=O)N[C@@H](Cc1ccc(O)cc1)C(=O)N[C@@H](Cc1ccccc1)C(=O)O [APN5, NH2-GLYYF-OH, reference compound] | 98.5 % of control activity | 82.9 % of control activity | 92.3 % of control activity | 9.5% | 1.7% | 88.8 % of control activity | >100 % of control activity | 1.3% | < 1% | < 1% | 1.0 fold change | 8.2 µg/mL (≈ 12.4 µM) | remaining at 0.5 h, 1 μM ([6]; rat, plasma): 83.1%; remaining at 2 h, 1 μM ([6]; rat, plasma): 70.5%
